Measured values: the supplement of paper PMC10307832

Key:
Test in all cases: relative viability (nuclei count vs DMSO), 5 days (fraction); higher = more cells survive
Shikonin + Phenformin = compound: CC(C)=CC[C@@H](O)C1=CC(=O)c2c(O)ccc(O)c2C1=O [Shikonin] + N=C(N)NC(=N)NCCc1ccccc1 [Phenformin] (partner 250 µM)
Method in brief: (§1)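 Lung cancer cell lines were pin-tool dosed in 1536-well plates on the day after seeding, with either a lone drug or a fixed anchor-drug dose plus five library-drug doses (not always all listed) in √10 steps. Nuclei were counted on 4× images after 5 days. Relative viability is the ratio of treated-well to vehicle-well nuclei counts, with each value a median of duplicate plates.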

[1] = compound: CC(C)N(CCCNC(=O)Nc1ccc(C(C)(C)C)cc1)C[C@H]1O[C@@H](n2ccc3c(N)ncnc32)[C@H](O)[C@@H]1O + CS(=O)(=O)CCNCc1ccc(-c2ccc3ncnc(Nc4ccc(OCc5cccc(F)c5)c(Cl)c4)c3c2)o1 [Lapatinib] (partner 2 µM)
Method in brief: as §1

Shikonin + Vorinostat = compound: CC(C)=CC[C@@H](O)C1=CC(=O)c2c(O)ccc(O)c2C1=O [Shikonin] + O=C(CCCCCCC(=O)Nc1ccccc1)NO [Vorinostat] (partner 1 µM)
Method in brief: as §1

[2] = compound: CC(C)N(CCCNC(=O)Nc1ccc(C(C)(C)C)cc1)C[C@H]1O[C@@H](n2ccc3c(N)ncnc32)[C@H](O)[C@@H]1O + O=C(CCCCCCC(=O)Nc1ccccc1)NO [Vorinostat] (partner 1 µM)
Method in brief: as §1

Cell Line | relative viability (Shikonin + Phenformin; first compound 0.01 µM) | relative viability (Shikonin + Phenformin; first compound 0.1 µM) | relative viability (Shikonin + Phenformin; first compound 0.3162 µM) | relative viability (Shikonin + Phenformin; first compound 1 µM) | relative viability ([1]; first compound 0.08 µM) | relative viability ([1]; first compound 0.253 µM) | relative viability ([1]; first compound 0.8 µM) | relative viability ([1]; first compound 2.53 µM) | relative viability ([1]; first compound 8 µM) | relative viability (Shikonin + Vorinostat; first compound 0.01 µM) | relative viability (Shikonin + Vorinostat; first compound 0.1 µM) | relative viability (Shikonin + Vorinostat; first compound 0.3162 µM) | relative viability (Shikonin + Vorinostat; first compound 1 µM) | relative viability ([2]; first compound 0.08 µM) | relative viability ([2]; first compound 0.253 µM) | relative viability ([2]; first compound 0.8 µM) | relative viability ([2]; first compound 2.53 µM) | relative viability ([2]; first compound 8 µM)
HCC-78 | 0.66 | 0.705 | 0.697 | 0.806 | 0.693 | 0.809 | 0.786 | 0.431 | 0.701 | 0.505 | 0.472 | 0.514 | 0.415 | 0.41 | 0.391 | 0.4 | 0.42 | 0.488
IA-LM |  |  |  |  | 0.959 | 0.801 | 0.733 | 0.734 | 0.681 | 1.08 | 0.512 | 1.07 | 1 | 0.88 | 0.761 | 0.909 | 0.968 | 0.96
NCI-H441 | 0.941 | 1.03 | 0.761 | 0.815 |  |  |  |  |  | 0.875 | 0.832 | 0.783 | 0.695 | 0.811 | 0.641 |  | 0.784 | 0.654
NCI-H322M | 0.871 | 0.856 | 0.754 | 0.836 | 0.536 | 0.591 | 0.607 | 0.564 | 0.607 | 0.672 | 0.911 | 0.953 | 0.978 | 0.891 | 0.899 | 0.805 | 0.842 | 0.912
NCI-H520 | 0.504 | 0.809 | 0.567 | 0.6 | 0.712 | 0.58 | 0.655 | 0.845 | 0.811 | 0.8 | 0.718 | 0.717 | 0.681 | 0.849 | 0.711 | 0.801 | 0.753 | 0.843
COR-L23 | 0.462 | 0.438 | 0.465 | 0.406 | 0.955 | 0.929 | 0.888 | 1.01 | 1.04 | 0.413 | 0.449 | 0.471 | 0.308 | 0.378 | 0.431 | 0.462 | 0.5 | 0.374
NCI-H2126 | 0.518 | 0.571 | 0.565 | 0.513 | 0.721 | 0.735 | 0.681 | 0.718 | 0.742 | 0.806 | 0.757 | 0.841 | 0.819 | 0.672 | 0.702 | 0.825 | 0.721 | 0.711
LC-2-ad | 0.553 | 0.643 | 0.592 | 0.667 | 0.937 | 0.906 | 0.925 | 0.966 | 0.835 | 0.696 | 0.759 | 0.739 | 0.678 | 0.666 | 0.784 | 0.55 | 0.722 | 0.671
NCI-H1915 | 0.383 | 0.396 | 0.368 | 0.395 | 1.02 | 0.981 | 0.783 | 0.925 | 0.87 | 0.511 | 0.612 | 0.576 | 0.479 | 0.495 | 0.582 | 0.483 | 0.475 | 0.485
NCI-H1793 | 0.424 | 0.417 | 0.41 | 0.404 | 0.607 |  | 0.554 | 0.599 | 0.636 | 0.752 | 0.974 | 0.68 | 0.973 | 0.617 |  | 0.761 | 0.773 | 0.574
NCI-H2085 | 0.738 | 0.847 | 0.785 | 0.637 | 0.782 | 0.681 | 0.747 | 0.858 | 0.798 | 0.78 | 0.917 | 0.775 | 0.824 | 0.769 | 0.667 | 0.813 | 0.887 | 0.744
COR-L 105 | 0.452 | 0.507 | 0.423 | 0.466 | 0.365 | 0.317 | 0.417 | 0.403 | 0.355 | 0.841 | 0.91 | 0.881 | 0.853 | 0.893 | 1.41 | 0.879 | 0.89 | 0.818
NCI-H1792 | 0.257 | 0.185 | 0.241 | 0.393 | 0.878 | 0.851 | 0.839 | 0.831 | 0.902 |  |  |  |  |  |  |  |  | 
ChaGo-K-1 | 0.475 | 0.542 | 0.543 | 0.471 |  |  |  |  |  | 0.746 | 0.914 | 0.8 | 0.762 | 0.785 | 0.827 | 0.756 | 0.715 | 0.766
NCI-H2342 | 0.679 | 0.538 | 0.653 | 0.587 |  |  |  |  |  | 0.872 | 0.722 | 0.78 | 0.764 | 0.708 | 0.744 | 0.669 | 0.778 | 0.775
NCI-H1299 |  |  |  |  | 0.984 | 0.948 | 0.914 | 0.919 | 0.891 |  |  |  |  |  |  |  |  | 
SW 900 | 0.667 | 0.589 | 0.666 | 0.661 |  |  |  |  |  | 0.357 | 0.458 | 0.377 | 0.576 | 0.639 | 0.38 |  | 0.562 | 0.548
NCI-H1648 |  |  |  |  |  |  |  |  |  | 0.351 |  | 0.672 | 0.509 | 0.466 | 0.4 | 0.407 | 0.481 | 0.64
NCI-H522 | 0.663 | 0.713 | 0.601 | 0.623 |  |  |  |  |  | 0.875 | 1 | 0.903 | 0.958 | 0.771 | 0.801 | 0.697 | 0.858 | 0.82
A549 | 0.14 | 0.355 | 0.12 | 0.122 | 0.908 | 1.01 | 1.29 | 0.93 | 1.01 |  |  |  |  |  |  |  |  | 
NCI-H1563 | 0.662 | 0.723 | 0.643 | 0.673 | 0.862 | 0.836 | 0.742 | 1.05 | 0.915 |  |  |  |  |  |  |  |  | 
LCLC-103H | 0.372 | 0.335 | 0.341 | 0.34 |  |  |  |  |  | 0.791 | 0.877 | 0.801 | 0.889 | 0.717 | 0.692 | 0.585 | 0.701 | 0.748
